Laboratory results: EP4005565A1 (priority 2020, dated 2022)
Where a name gives a salt, the structure may show the parent alone. Read-outs that look alike come from different tables or passages of the source.

Legend:
[1] = test system: SARS-CoV-2 (viral strain INMI1); assay: Antiviral activity assay with nucleoprotein readout (ELISA) in infected Vero E6 cells; assay type: cell-based; conditions: Severe acute respiratory syndrome coronavirus 2, Vero C1008, 72 h, read-out: IC50, SARS-CoV-2 replication (virus nucleoprotein in % of infected untreated control)
Protocol: The cell line is routinely maintained in DMEM supplemented with 1% glutamine, 1% penicillin/streptomycin and 10% fetal bovine serum and can be infected with SARS-CoV-2 (Ogando et al., 2020).
Exponentially growing Vero E6 cells were seeded into a 96-well plate at their optimal density in complete medium. […] Drug dilutions were performed in culture medium. Replicates for each concentration point were examined. At the end of the incubation period, antiviral activity was examined through both ELISA (Sino Biological, quantifying SARS-CoV-2 nucleoprotein) as well as a cytoprotection assay (toxicity effect examined through an inverted microscope). An inhibitory concentration 50% (IC50) value was calculated through interpolation of the dose-response curves generated.
The nucleoprotein was quantified by ELISA. Results are means ± SD of 2-4 experiments.

lysosomal uptake = conditions: at 10µM (Smieszek et al., 2020); cited from earlier work
influenza A [2] = conditions: 20 influenza A patients; inhalative 1%, 20mg/d, 3x20min, 4d (Hayden et al., 1980); cited from earlier work
influenza A [3] = conditions: inhalation, cited from earlier work
[4] = cited from earlier work
influenza A [5] = conditions: inhaled at 6mg/kg/d (Fenton et al., 1977); cited from earlier work
[6] = molecular target: binding of the viral spike protein to ACE2 (UniProt P0DTC2+Q9BYF1); conditions: Fink et al. in prep; cited from earlier work
Sequence of binding of the viral spike protein to ACE2 (Q9BYF1 18-805, one chain of several): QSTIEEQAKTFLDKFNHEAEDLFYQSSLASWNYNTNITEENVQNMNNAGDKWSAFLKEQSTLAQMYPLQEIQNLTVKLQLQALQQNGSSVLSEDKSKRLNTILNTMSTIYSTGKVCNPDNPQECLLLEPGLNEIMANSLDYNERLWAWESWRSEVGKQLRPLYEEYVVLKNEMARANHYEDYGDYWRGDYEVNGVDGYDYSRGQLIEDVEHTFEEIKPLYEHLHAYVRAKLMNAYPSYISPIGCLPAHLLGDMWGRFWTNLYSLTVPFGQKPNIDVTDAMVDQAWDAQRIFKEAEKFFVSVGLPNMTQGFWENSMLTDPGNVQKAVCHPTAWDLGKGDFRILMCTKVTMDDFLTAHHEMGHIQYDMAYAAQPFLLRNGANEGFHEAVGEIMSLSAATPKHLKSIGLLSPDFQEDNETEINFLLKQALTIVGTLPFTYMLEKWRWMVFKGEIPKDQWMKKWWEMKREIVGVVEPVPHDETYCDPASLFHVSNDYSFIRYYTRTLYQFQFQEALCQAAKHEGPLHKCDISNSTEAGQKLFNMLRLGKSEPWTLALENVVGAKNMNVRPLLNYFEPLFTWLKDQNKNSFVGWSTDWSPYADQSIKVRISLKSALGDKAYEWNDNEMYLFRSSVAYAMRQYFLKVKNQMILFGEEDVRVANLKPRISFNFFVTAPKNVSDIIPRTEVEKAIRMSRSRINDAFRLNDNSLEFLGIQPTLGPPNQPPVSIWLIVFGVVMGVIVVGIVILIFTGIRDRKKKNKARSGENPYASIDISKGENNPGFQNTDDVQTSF

[7] = 7 volunteers and 3 influenza patients; 1.5%, up to 9h, 2x6h, 10-11h in 3d (Knight et al., 1979); cited from earlier work
[8] = cited from earlier work; remark: listed apart in the source
SARS-CoV-2 = assay: Treatment of a SARS-CoV-2 positive patient with nebulized amantadine hemisulfate (Example 2); assay type: in vivo; conditions: 0.4mg/ml inhaled every 2 h for 30min 6 times per day, 7 days
Description: A patient who had contact 2 days ago with a colleague who turned out to be SARS-CoV-2 positive the day after the meeting, consults their primary care physician. […] The RT-PCR test for SARS-CoV-2 of a nasal swab is also positive; HR is 78/min, BP is 120/80mmHg, BR is 15/min, peripheral O2 saturation is 97%, no further health issues are diagnosed. The patient is diagnosed with Covid-19 and isolated in home quarantine with daily doctor calls to evaluate their health status. […] The treatment is continued for 7 days. […] They recover within 14 days after treatment start.

**Q.** For `NC12CC3CC(CC(C3)C1)C2` [amantadine hydrochloride], which IC50 [1] is on record?
**A.** Its IC50 is 88 µM.

**Q.** With `NC12CC3CC(CC(C3)C1)C2` [amantadine, 1-Adamantylamine] as the compound, how does the reduced lysosomal uptake (lysosomal uptake) read?
**A.** Its reduced lysosomal uptake is 50%.

**Q.** What about the symptoms (influenza A [2]) of the same compound?
**A.** Its symptoms is “improved symptoms”.

**Q.** What about the virus load (influenza A [2]) of the same compound?
**A.** Its virus load is “reduced virus load”.

**Q.** What about the virus load (influenza A [3]; 40 mg/d retained dose (Wilson et al., 1980)) of the same compound?
**A.** The virus load was “reduced virus load”.

**Q.** And the effect on survival (influenza A [3]; 22h/day, 4mg/d retained dose (Walker et al., 1976))?
**A.** Its effect on survival is “positive effect on survival”.

**Q.** And the “plasma concentration after inhalative administration” value ([4]; healthy human volunteers, inhalation (Hayden et al., 1979))?
**A.** The value was 0.13 µM.

**Q.** And the plasma concentrations ([4]; patients receiving regularly 600 mg orally per day (Brenner et al., 1989))?
**A.** Its plasma concentrations is “up to 14.6 µM”.

**Q.** What about the virus load (influenza A [5]) of the same compound?
**A.** Its virus load is “reduced virus load”.

**Q.** And the “Interference with the binding of the viral spike protein to ACE2 on target cells” value [6]?
**A.** The value was “can be ruled out”.

**Q.** And the “safety of inhalative administration” value [7]?
**A.** Its value is “safe and irritation-free”.

**Q.** And the “serum concentrations in intoxication case” value ([8]; human, in vivo)?
**A.** Its value is 15.9 µM.

**Q.** And the “plasma concentration at which aggressive behaviour was observed” value ([8]; patients, plasma)?
**A.** The value was 5.5 to 6.6 µM.

**Q.** What about the “plasma concentration at which depression and confusion were observed” value ([8]; patients, plasma) of the same compound?
**A.** The value was 19.9 µM.

**Q.** What about the “plasma concentration at which seizures were observed” value ([8]; patients, plasma) of the same compound?
**A.** Its value is 13.2 µM.

**Q.** With amantadine hemisulfate as the compound, how does the “breathing problems during treatment” value (SARS-CoV-2) read?
**A.** The value was “does not suffer from breathing problems”.

**Q.** What about the fever during treatment (SARS-CoV-2) of the same compound?
**A.** Its fever during treatment is “transiently minor fever”.

**Q.** And the “time to recovery after treatment start” value (SARS-CoV-2)?
**A.** Its value is ≤ 14 days.
